Key:
[1] = system: HepG2, Hela, MCF-7, A549, HT-29 and SSC-4 cell lines; assay: MTT assay, panel of six cancer cell lines; format: cell-based; settings: Homo sapiens; range over six cell lines; read-out: IC50 values against a panel of cancer cell lines
Protocol: The in vitro anticancer activities of the prepared compounds against HepG2, Hela, MCF-7, A549, HT-29 and SSC-4 cell lines were evaluated as described in the literature. Target tumor cells were grown to log phase in DMEM medium supplemented with 10% fetal bovine serum. After reaching a dilution of 1 × 10^5 cells Ml^−1 with the medium, 100 μL of the obtained cell suspension was added to each well of 96-well culture plates. Subsequently, incubation was performed at 37 °C in 5% CO2 atmosphere for 12 h before the cytotoxicity assessment. Tested samples at preset concentrations were added to 6 wells with CA-4 being employed as a positive reference. After 48 h exposure period, 25 μL of PBS containing 2.5 mg mL^−1 of MTT (Sigma, USA) was added to each well. After 4 h, the medium was replaced by 150 μL DMSO to dissolve the purple formazan crystals produced. The absorbance at 570 nm of each well was measured with Synergy™ 2 Multi-Mode Microplate Reader. Cell viability (%) was calculated using the following equation: cell viability (%) = (Atreatment/Acontrol) × 100%. The data represented the mean of three independent experiments in triplicate and were expressed as means ± SD.

A549 cells [2] = assay: Apoptosis assay, Annexin V-FITC/PI flow cytometry; format: cell-based, human; settings: A549, 0.8 μM
Protocol: The percentages of apoptotic cells were estimated by staining with Annexin-V-FITC and with a PI Apoptosis Detection Kit (KGA105, Keygen biotech, China) according to the manufacturer’s instructions with some modifications. In brief, collected cells were washed once with PBS and subsequently washed once with binding buffer, and then stained with Annexin V-FITC and propidium iodide (PI) in the binding buffer for 20 min at room temperature in the dark. Apoptotic cells were quantified using a […] plotting at least 10,000 events per sample. To quantify the data, the frequencies in all quadrants were analyzed using flowjo 7.6.1 software. Both early apoptotic (Annexin V-positive, PI-negative) and late apoptotic (double positive of Annexin V and PI) cells were detected.

[3] = system: 293T, Macrophage, and L02; assay: MTT assay on non-cancer cell lines; format: cell-based, human
A549 cells [4] = assay: Detection of intracellular ROS (DCFH-DA flow cytometry); format: cell-based, human; settings: A549, versus control cells and positive control
Protocol: Intracellular ROS production was measured by use of active oxygen species assay kit (K0111, Beyotime, China). […] After 30 min of incubation in the darkness, cells were washed with DMEM for three times, and then fluorescent intensity was measured by the flow cytometer with excitation and emission wavelengths of 488 and 525 nm, respectively.

[5] = system: Tubulin isolated from porcine brain tissue; assay: Tubulin polymerization assay (kit, absorbance 340 nm); format: biochemical; settings: 37 °C
Protocol: Tubulin polymerization was determined with the tubulin polymerization assay kit (Cytoskeleton, Denver, CO which was purchased from Cytoskeleton, Beyotime, China. Tubulin isolated from porcine brain tissue was used in this commercial kit.) It is based on the principal that light is scattered by microtubules to an extent that is proportional to the concentration of the microtubule polymer. Compounds that interact with tubulin will alter the polymerization of tubulin, and this can be detected using a spectrophotometer. Tubulin polymerization dynamics was monitored through measuring the change of absorbance at 340 nm every 2 min for 30 min at 37 °C on a spectrophotometer (Perkin-Elmer).

A549 xenograft tumor = assay: In vivo anti-tumor activity, A549 xenograft; parameters: species or system BALB/c nude mice; settings: for average weight of the excised tumors: control group 1.802 g; for tumor growth reduction versus vehicle at end of observation: intraperitoneal, every other day
Protocol: Mice were subcutaneously inoculated with injections of 5.0 × 10^6 cells/nude mice. After 12–14 days, tumor sizes were determined using micrometer calipers, and then nude mice with similar tumor volume (~100 mm^3, eliminate mice with tumors that are too large or too small) were randomly divided them into four groups (with six nude mice/group). […] Both drugs, as well as the vehicle control, were administered every other day for the entire period of observation.
(§1) Male BALB/c nude mice, five weeks old and weighing 18–22 g, were supplied by Shanghai Laboratory Animal Limited Company. The mice were raised in air-conditioned rooms under controlled lighting (12 h light-dark cycle at 24 °C) and were fed with standard laboratory food and water ad libitum. Before injection into the mice, the A549 cells were harvested by trypsinization and washed three times with cold serum-free medium and then injected in a total volume of 0.1 mL using a 1 mL latex-free syringe (BD) within 30 min of harvest. Mice were inoculated subcutaneously with A549 cells (5.0 × 10^6) on their shoulders. […] The control group received 0.9% normal saline. Tumor size was measured once every 2 days in two per-pendicular dimensions with Vernier calipers and converted to tumor volume (TV) using the formula: (ab^2)/2, where a and b refer to the longer and shorter dimensions, respectively. The body weight of the animals was measured twice a week to assess toxicity of the treatments at the same time as the tumor dimension measurement and the mortality was monitored daily. After the treatments for eight weeks, the animals were euthanized by cervical dislocation. This study conformed to the Guide for the Care and Use of Laboratory Animals as published by the US National Institutes of Health and was approved by the Institutional Ethics Review Board of Nanjing University.

[6] = Body weight of treated xenograft mice; format: in vivo, BALB/c nude mice; settings: whole treatment period
Protocol: as §1

COc1cc(/C=N/NC(=O)c2cn(Cc3ccccc3)c3ccccc23)cc(OC)c1OC [Compound 7]
IC50 [1]: 0.08 to 35.6 µM | early apoptosis (Q3) (A549 cells [2]; 12 h): 1.84% | total percentage of early and late apoptotic cells (A549 cells [2]; 24 h): 33.05% | total percentage of early and late apoptotic cells (A549 cells [2]; 48 h): 77.2% | cytotoxic effects on three normal human cells (in words) [3]: minimal | intracellular ROS production (A549 cells [4]): induced the production of significant amounts of ROS | tubulin polymerization (in words) ([5]; 1.0 μM): slightly inhibiting | tubulin polymerization (in words) ([5]; 5.0 μM): nearly completely blocked | average weight of the excised tumors (A549 xenograft tumor; 20 mg/kg group): 0.951 g | tumor growth reduction versus vehicle at end of observation (A549 xenograft tumor; 20 mg/kg): 47% | average weight of the excised tumors (A549 xenograft tumor; 30 mg/kg group): 0.553 g | tumor growth reduction versus vehicle at end of observation (A549 xenograft tumor; 30 mg/kg): 70% | body weight changes during treatment [6]: no significant weight changes
